Measured values: US6518303B2, “2-phenylpyran-4-one derivatives” (Almirall Prodesfarma S.A., priority 1999, dated 2003)

Tests used:
COX-1 = molecular target: T1, COX-1 (Homo sapiens, UniProt P23219); assay: COX-1 activity in human whole blood (TXB2, calcium ionophore A23187); assay type: cell-based; settings: 1 h at 37° C., TXB2 ELISA
T1 construct: Fresh blood from healthy volunteers; endogenous in cells; host or cells: fresh heparinized human whole blood stimulated with calcium ionophore A23187
T1 sequence (P23219 24-599): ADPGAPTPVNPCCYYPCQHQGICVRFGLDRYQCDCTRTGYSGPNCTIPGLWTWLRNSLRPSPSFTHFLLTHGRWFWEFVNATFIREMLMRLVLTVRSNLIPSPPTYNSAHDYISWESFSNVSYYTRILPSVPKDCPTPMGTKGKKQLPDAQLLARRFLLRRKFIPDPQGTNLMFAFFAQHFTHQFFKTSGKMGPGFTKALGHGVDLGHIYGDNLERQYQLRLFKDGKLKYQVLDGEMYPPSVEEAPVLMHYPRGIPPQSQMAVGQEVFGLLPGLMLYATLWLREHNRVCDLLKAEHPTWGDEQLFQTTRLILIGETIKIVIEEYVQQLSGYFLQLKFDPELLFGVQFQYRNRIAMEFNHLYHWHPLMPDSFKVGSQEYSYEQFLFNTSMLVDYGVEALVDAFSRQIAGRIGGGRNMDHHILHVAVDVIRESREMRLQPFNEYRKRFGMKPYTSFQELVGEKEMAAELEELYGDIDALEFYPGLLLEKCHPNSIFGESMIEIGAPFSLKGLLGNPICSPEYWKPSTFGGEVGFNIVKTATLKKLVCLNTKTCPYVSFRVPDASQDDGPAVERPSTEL
Protocol: For the COX-1 activity determination, 500 μl aliquots of blood were incubated with either 5 μl vehicle (dimethylsulphoxide) or 5 μl of a test compound for 1 h at 37° C. […] Plasma was separated by centrifugation (10 min at 13000 rpm) and kept at −30° C. until TXB2 levels were measured using an enzyme immunoassay kit (ELISA). The effect of the compounds were evaluated by incubating each compound at five to six different concentrations with triplicate determinations. IC50 values were obtained by non-linear regression using InPlot, GraphPad software on an IBM computer.

COX-2 = molecular target: T2, COX-2 (Homo sapiens, UniProt P35354); assay: COX-2 activity in human whole blood (PGE2, LPS-induced); assay type: cell-based; settings: for IC50: human whole blood, LPS 10 μg/ml 24 h at 37° C., PGE2 ELISA; for Ratio COX-1/COX-2: ratio of whole blood IC50 values
T2 construct: incubated in the presence of LPS (10 μg/ml) for 24 h at 37° C. in order to induce The COX-2 expression; endogenous in cells; host or cells: fresh heparinized human whole blood, COX-2 induced with LPS for 24 h
T2 sequence (P35354 18-604): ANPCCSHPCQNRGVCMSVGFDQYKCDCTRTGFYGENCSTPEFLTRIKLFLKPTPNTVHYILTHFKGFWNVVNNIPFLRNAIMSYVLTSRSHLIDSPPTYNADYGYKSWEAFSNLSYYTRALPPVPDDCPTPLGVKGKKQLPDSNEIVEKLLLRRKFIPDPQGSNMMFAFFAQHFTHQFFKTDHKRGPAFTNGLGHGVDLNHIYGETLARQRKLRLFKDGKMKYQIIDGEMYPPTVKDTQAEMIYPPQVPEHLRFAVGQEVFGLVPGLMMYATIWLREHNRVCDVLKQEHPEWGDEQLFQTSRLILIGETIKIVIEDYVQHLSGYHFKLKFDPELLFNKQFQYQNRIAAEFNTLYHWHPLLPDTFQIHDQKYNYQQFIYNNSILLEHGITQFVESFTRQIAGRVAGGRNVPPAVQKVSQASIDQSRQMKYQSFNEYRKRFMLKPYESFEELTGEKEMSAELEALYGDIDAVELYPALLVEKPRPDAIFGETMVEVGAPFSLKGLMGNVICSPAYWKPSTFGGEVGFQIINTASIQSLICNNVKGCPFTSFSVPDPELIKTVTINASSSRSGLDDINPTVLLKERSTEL
Protocol: Plasma was separated by centrifugation (10 min at 13000 rpm.) and kept at −30° C. until PGE2 levels were measured using an enzyme immunoassay kit (ELISA). The effects of inhibitors were studied by incubating each compound (5 μl aliquots) at five to six different concentrations with triplicate determinations in the presence of LPS for 24 hours. IC50 values were obtained by non-linear regression using InPlot, GraphPad software on an IBM computer.

| IC50 (COX-1) | IC50 (COX-2) | Ratio COX-1/COX-2 (COX-2) | melting point | SMILES |
| --- | --- | --- | --- | --- |
| 27000 nM | 140 nM | 193 | – | Cc1cc(=O)c(Oc2ccccc2F)c(-c2ccc(S(C)(=O)=O)cc2)o1 [Compound 40, 3-(2-fluorophenoxy)-2-(methanesulfonylphenyl)-6-methylpyran-4-one] |
| > 100000 nM | 1080 nM | >92 | 137 °C | Cc1cc(=O)c(Cc2ccccc2)c(-c2ccc(S(C)(=O)=O)cc2)o1 [Compound 37] |
| – | – | – | 113 °C | Cc1cc(=O)c(-c2ccc(F)cc2Cl)c(-c2ccc(S(C)(=O)=O)cc2)o1 [Compound 27, 3-(2-chloro-4-fluorophenyl)-2-(4-methanesulfonylphenyl)-6-methylpyran-4-one] |
| 39000 nM | – | – | 183 °C | Cc1ccc(Oc2c(-c3ccc(S(C)(=O)=O)cc3)oc(C)cc2=O)cc1 [Compound 44, 2-(4-methanesulfonylphenyl)-6-methyl-3-(4-methylphenoxy) pyran-4-one] |
| – | – | – | 91 to 93 °C | Cc1cc(=O)c(-c2ccccc2C)c(-c2ccc(S(C)(=O)=O)cc2)o1 [Compound 12, 2-(4-methanesulfonylphenyl)-6-methyl-3-o-tolylpyran-4-one] |
| – | – | – | 162 °C | COCc1cc(=O)c(-c2ccc(Cl)cc2)c(-c2ccc(S(C)(=O)=O)cc2)o1 (hydrate or solvate) [Compound 63, 3-(4-chlorophenyl)-2-(4-methanesulfonylphenyl)-6-methoxymethylpyran-4-one] |
| 41000 nM | 200 nM | 205 | – | Cc1cc(=O)c(Oc2ccccc2Cl)c(-c2ccc(S(C)(=O)=O)cc2)o1 [Compound 42, 3-(2-chlorophenoxy)-2-(methanesulfonylphenyl)-6-methylpyran-4-one] |
| > 100000 nM | 1700 nM | >58 | 198 °C | Cc1cc(=O)c(-c2ccc(Br)cc2)c(-c2ccc(S(C)(=O)=O)cc2)o1 [Compound 8, 3-(4-bromophenyl)-2-(4-methanesulfonylphenyl)-6-methylpyran-4-one] |
| – | – | – | 120 °C | CS(=O)(=O)c1ccc(-c2oc(CO)cc(=O)c2-c2ccc(Cl)cc2)cc1 [Compound 60, 3-(4-chlorophenyl)-6-hydroxymethyl-2-(4-methanesulfonylphenyl)pyran-4-one] |
| – | – | – | 128 °C | Cc1cc(=O)c(-c2ccc(Cl)c(Cl)c2)c(-c2ccc(S(N)(=O)=O)cc2)o1 [Compound 56, 4-[3-(3,4-dichlorophenyl)-6-methyl-4-oxo-4H-pyran-2-yl]benzenesulfonamide] |
| – | – | – | 221 °C | Cc1cc(=O)c(Oc2ccc(Cl)cc2)c(-c2ccc(S(N)(=O)=O)cc2)o1 [Compound 57, 4-[3-(4-chlorophenoxy)-6-methyl-4-oxo-4H-pyran-2-yl]benzenesulfonamide] |
| – | – | – | 185 °C | Cc1cc(=O)c(-c2ccccc2)c(-c2ccc(S(C)(=O)=O)cc2)o1 [Compound 1, 2-(4-methanesulfonylphenyl) -6-methyl-3-phenylpyran-4-one] |
| – | – | – | 247 °C | Cc1cc(=O)c(-c2ccc(F)cc2)c(-c2ccc(S(N)(=O)=O)cc2)o1 [Compound 55, 4-[3 (4-fluorophenyl)-6-methyl-4-oxo-4H-pyran-2-yl]benzenesulfonamide] |
| – | – | – | 182 °C | Cc1cc(=O)c(-c2cccc(F)c2)c(-c2ccc(S(C)(=O)=O)cc2)o1 [Compound 3, 3-(3-fluorophenyl)-2-(4-methanesulfonylphenyl)-6-methylpyran-4-one] |
| – | – | – | 183 °C | Cc1cc(=O)c(-c2cc(F)ccc2F)c(-c2ccc(S(C)(=O)=O)cc2)o1 [Compound 18, 3-(2,5-difluorophenyl)-2-(4-methanesulfonylphenyl)-6-methylpyran-4-one] |
| – | – | – | 203 °C | Cc1cc(=O)c(-c2ccc(Cl)cc2Cl)c(-c2ccc(S(C)(=O)=O)cc2)o1 [Compound 21, 3-(2,4-dichlorophenyl)-2-(4-methanesulfonylphenyl)-6-methylpyran-4-one] |
| – | – | – | 98 to 99 °C | Cc1cc(=O)c(C2CCCCC2)c(-c2ccc(S(C)(=O)=O)cc2)o1 [Compound 33, 3-cyclohexyl-2-(4-methanesulfonylphenyl)-6-methylpyran-4-one] |

| IC50 (COX-1) | IC50 (COX-2) | Ratio COX-1/COX-2 (COX-2) | melting point | SMILES |
| --- | --- | --- | --- | --- |
| – | – | – | 176 °C | Cc1cc(=O)c(-c2ccc(C)c(Cl)c2)c(-c2ccc(S(C)(=O)=O)cc2)o1 [Compound 29, 3-(3-chloro-4-methylphenyl)-2-(4-methanesulfonylphenyl)-6-methylpyran-4-one] |
| – | – | – | 113 °C | CS(=O)(=O)c1ccc(-c2oc(C#N)cc(=O)c2-c2ccc(F)cc2F)cc1 [Compound 59, 5-(2,4-difluorophenyl)-6-(4-methanesulfonylphenyl)-4-oxo-4H-pyran-2-carbonitrile] |
| – | – | – | 218 °C | Cc1cc(=O)c(-c2ccccc2)c(-c2ccc(S(N)(=O)=O)cc2)o1 [Compound 54, 4-(6-methyl-4-oxo-3-phenyl-4H-pyran-2-yl)benzenesulfonamide] |
| 57100 nM | 800 nM | 71 | 189 °C | Cc1cc(=O)c(Oc2cc(F)ccc2F)c(-c2ccc(S(C)(=O)=O)cc2)o1 [Compound 47, 3-(2,5-difluorophenoxy)-2-(4-methanesulfonylphenyl)-6-methylpyran-4-one] |
| – | – | – | 206 °C | Cc1cc(=O)c(-c2c(F)cccc2F)c(-c2ccc(S(C)(=O)=O)cc2)o1 [Compound 19, 3-(2,6-difluorophenyl)-2-(4-methanesulfonylphenyl)-6-methylpyran-4-one] |
| – | – | – | 205 °C | Cc1ccc(-c2c(-c3ccc(S(C)(=O)=O)cc3)oc(C)cc2=O)cc1 [Compound 10, 2-(4-methanesulfonylphenyl)-6-methyl-3-p-tolylpyran-4-one] |
| – | 1100 nM | 90 | 208 °C | Cc1cc(=O)c(-c2ccc(F)cc2F)c(-c2ccc(S(C)(=O)=O)cc2)o1 [Compound 15, 3-(2,4-difluorophenyl)-2-(4-methanesulfonylphenyl)-6-methylpyran-4-one] |
| – | – | – | 210 °C | Cc1cc(=O)c(-c2cc(F)cc(F)c2)c(-c2ccc(S(C)(=O)=O)cc2)o1 [Compound 17, 3-(3,5-difluorophenyl)-2-(4-methanesulfonylphenyl)-6-methylpyran-4-one] |
| – | – | – | 169 °C | Cc1cc(=O)c(Oc2ccccc2)c(-c2ccc(S(C)(=O)=O)cc2)o1 [Compound 38, 2-(4-methanesulfonylphenyl)-6-methyl-3-phenoxypyran-4-one] |
| – | – | – | 236 °C | CS(=O)(=O)c1ccc(-c2oc(C(=O)O)cc(=O)c2-c2ccc(Cl)cc2)cc1 [Compound 65, 5-(4-chlorophenyl)-6-(4-methanesulfonylphenyl)-4-oxo-4H-pyran-2-carboxylic acid] |
| – | – | – | 148 °C | Cc1cc(=O)c(-c2ccccc2Cl)c(-c2ccc(S(C)(=O)=O)cc2)o1 [Compound 7, 3-(2-chlorophenyl)-2-(4-methanesulfonylphenyl)-6-methylpyran-4-one] |
| – | – | – | 126 °C | Cc1cccc(-c2c(-c3ccc(S(C)(=O)=O)cc3)oc(C)cc2=O)c1 [Compound 11, 2-(4-methanesulfonylphenyl)-6-methyl-3-m-tolylpyran-4-one] |
| – | – | – | 131 °C | Cc1cc(=O)c(-c2cccc(Cl)c2)c(-c2ccc(S(C)(=O)=O)cc2)o1 [Compound 6, 3-(3-chlorophenyl)-2-(4-methanesulfonylphenyl)-6-methylpyran-4-one] |
| 44000 nM | 1730 nM | 25 | – | COCc1cc(=O)c(-c2ccc(Cl)cc2)c(-c2ccc(S(C)(=O)=O)cc2)o1 [Compound 63, 3-(4-chlorophenyl)-2-(4-methanesulfonylphenyl)-6-methoxymethylpyran-4-one] |
| – | – | – | 207 °C | Cc1cc(=O)c(-c2ccc(F)c(F)c2)c(-c2ccc(S(C)(=O)=O)cc2)o1 [Compound 16, 3-(3,4-difluorophenyl)-2-(4-methanesulfonylphenyl)-6-methylpyran-4-one] |
| – | – | – | 172 °C | Cc1cc(=O)c(-c2ccc(C(F)(F)F)cc2)c(-c2ccc(S(C)(=O)=O)cc2)o1 [Compound 13, 2-(4-methanesulfonylphenyl)-6-methyl-3-(4-trifluoromethylphenyl)pyran-4-one] |
